What was measured:
[1] = system: endothelial cells (HUVECs); test: Actin stress fiber formation in HUVECs attached to collagen peptides (F-actin stain); format: cell-based, human; conditions: FIG. 7G
Protocol: CAMs examined for accumulation of granulation tissue were harvested, fixed in 4% PFA and paraffin embedded and sectioned (4 μm) and stained with Giemsa. CAM tissues analyzed via immunofluorescence were harvested, embedded with OCT, snap frozen and sectioned ([…]). Frozen sections were fixed in 50% methanol/50% acetone, air dried and blocked with 2.5% BSA for 1 h at 37° C. For expression of the XL313 and XL166 epitopes as well as monocyte/macrophages, FGF-2 stimulated CAM tissues were stained with Mabs XL313, XL166 (50 μg/ml) or KUL1 (1:250) and then incubated with Alexa-488 labeled secondary antibodies (1:2000 dilution). […] Using a similar strategy, sections of RGD peptide-treated CAM tissues were analyzed for phosphorylated-P38MAPK in angiogenic vessels by co-incubation of anti-phospho-P38MAPK (1:50) and anti-vWf (1:500) antibodies. […]
Because both RGD containing peptides bind αvβ3 coupled with the differential effect of these peptides on angiogenesis and inflammation, it was determined whether the RGD peptides differentially altered αvβ3-mediated signaling. […] Therefore, the differential phosphorylation of these protein kinases following the early mechanical-mediated interactions with the RGD containing collagen peptides was assessed. […]

Src = Src phosphorylation in endothelial cells attached to collagen peptides, Western blot; format: cell-based, human; conditions: HUVEC; FIG. 7D
Protocol: (§1) Whole cell and CAM tissue lysates were collected in RIPA buffer supplemented with 1× protease inhibitor and 1× phosphatase inhibitor and were run on polyacrylamide gels using denaturing conditions. Prior to loading the gels, 6× sample buffer was added to each of the lysates (final concentration 1×) and boiled for five minutes. Twenty to 50 μg of total protein were loaded into each lane. […] Gels were run at 60 volts (v) until the dye front passed through the stacking gel, and then the voltage was increased to 100V for the remainder of the separation. Precision Plus protein standards (Bio-Rad) were used to visualize migration. Protein was transferred to nitrocellulose membranes using a wet tank system and blocked for 1 h using 10% non-fat dried milk in tris-buffered saline with 0.01% Tween-20 (TBS-T). […] Membranes were washed 3 times in TBS-T for five minutes. Blots were then incubated with HRP conjugated secondary antibodies (1:15000) in 1% non-fat milk in TBS-T for 1 h. Membranes were washed a second time as indicated above and exposed to chemiluminecent substrate for three minutes prior to exposure to autoradiography film in a dark room. Western blot bands were quantified using Image J software based on pixel intensity.

YAP = test: Nuclear YAP in HUVECs attached to collagen peptides; format: cell-based, human
Protocol: as §1

P38MAPK = test: Phosphorylated P38MAPK in CAM tissue lysates, Western blot; format: in vivo, chick; conditions: Image-J quantification, FIG. 6B
Protocol: (§2) The chick chorioallantoic membrane (CAM) assays were carried out with some modifications (19). For all experiments CAMs of 10-day-old chick embryos obtained from Charles River (North Franklin, CT) were separated from the shell membrane. Filter discs either non-treated (inflammation assays) pretreated (angiogenesis assays) with cortisone acetate (3.0 mg/ml) containing RPMI only or FGF-2 (40 ng). CAMs were either non-treated or treated topically with Mab XL313, XL166 or a non-specific control antibody (10 μg/embryo every 24 h for three consecutive treatments). […] At the end of the incubation period the embryos were sacrificed and the CAM tissues were analyzed. Angiogenesis was quantified by counting the number of angiogenic branching blood vessels within the area of the filter disc. The angiogenic index was determined by subtracting the mean number of blood vessel branch points from untreated CAMs from each experimental condition. Eight to twelve embryos were used per condition and experiments were repeated at least three times.
Whole cell and CAM tissue lysates were collected in RIPA buffer supplemented with 1× protease inhibitor and 1× phosphatase inhibitor and were run on polyacrylamide gels using denaturing conditions. […] Western blot bands were quantified using Image J software based on pixel intensity.

[2] = system: chick chorioallantoic membrane (CAM); test: Chick CAM inflammation assay, induction by RGD collagen peptides; format: in vivo; conditions: chick CAM, no cortisone acetate; FIG. 5D
Protocol: as §2
The effects of the soluble RGD containing collagen peptides on inflammation were examined.

[3] = system: endothelial cells transduced with non-specific shRNA; test: Cell proliferation assay, endothelial cells transduced with non-specific shRNA; format: cell-based, human; conditions: soluble peptide; FIG. 8G
Protocol: (§3) HUVECs (WT, shYAP1 or control transfected) or HRMVECs were plated at 2,000 cells per well with complete EGM-2 media containing 2.0% FBS in the absence or presence of P-1, P-2 or P-C (100 ng/ml) and allowed to grow for 24 hours. Cell growth was monitored using a BrdU or MMT assay kits according to manufacturer's instructions. All assays were completed at least three times in triplicate wells.
(§4) Raw cells were transfected with 1 μg of HuSH shRNA plasmids for collagen type I, alpha 2 using Amaxa cell line nucleofector kit V (program #T024). Constructs expressing 21-nucleotide short hairpin RNAs (shRNA) targeting human YAP (shYAP) or non-targeting control (shNT, Sigma-Aldrich, SHC002) were used. Humantargeting shYAP1 lentiviral shRNA was obtained from the Thermo Scientific RNAi consortium (TRCN0000107625). Constructs were packaged into lentivirus, pseudotyped with the vesicular stomatitis virus glycoprotein. Transduction was performed by incubating cells with lentivirus, and stably transduced cells were subsequently used for studies. All cell lines were verified by morphology and mouse and human YAP-specific PCR. […] Endothelial cells were certified mycoplasma-negative by PCR (Lonza), and primary cell cultures were used within the indicated passage numbers. Cells were transduced and selected using puromycin.
(§5) Endothelial cells with YAP specific or non-specific shRNAs were transduced.

[4] = system: endothelial cells in which YAP was knocked down; test: Cell proliferation assay, endothelial cells transduced with YAP specific shRNA; format: cell-based, human; conditions: soluble peptide (FIG. 8H) or VEGF 50 ng/ml (FIG. 8I)
Protocol: as §3, §4, §5

HUVEC = test: Cell proliferation assay, HUVEC; format: cell-based, human; conditions: peptide 100 ng/ml, 24 hours; FIG. 8C
Protocol: as §3

QGPRGDKGE [Mab P-2]
actin stress fiber formation, P-2 as compared to P-1 [1]: accelerated actin stress fiber formation
enhancement of Src phosphorylation, P-2 as compared to P-1 (Src): ~2 fold
nuclear localized YAP (immunofluorescence), P-2 as compared to P-1 (YAP; 15 minutes after binding, no growth factor, FIG. 8A): enhanced level of nuclear localized YAP
increase of nuclear YAP levels (Western blot), P-2 as compared to P-1 (YAP; nuclear fractions of HUVEC lysates, FIG. 8B): approximately 2 fold
increase in phosphorylation of P38MAPK as compared to controls (P38MAPK): 4 fold
CAM inflammation following stimulation with peptide [2]: significantly (P<0.05) induced inflammation to nearly that of FGF-2 stimulation
endothelial cell growth in control transduced cells [3]: enhanced growth
endothelial cell growth in YAP knock down cells [4]: failed to induce growth
HUVEC growth with soluble peptide (HUVEC): significantly (P<0.05) enhanced endothelial cell growth

From patent publication US11998600B2, “Enhancing the therapeutic activity of an immune checkpoint inhibitor” (MaineHealth, priority 2015, dated 2024)
